The text below walks through data of US10081631B2, “2-(1H-indazol-3-yl)-1H-imidazo[4,5-C]pyridine and therapeutic uses thereof” (Samumed, LLC, priority 2014, dated 2018).

Broadly, the IC50 is the concentration that inhibits the measured activity by half. Higher therefore signals weaker potency in that assay. In general, EC50 refers to the midpoint of the concentration-response curve.

For experiment [1], the system named is Wnt activity (Sp5-Luc reporter, SW480 colon carcinoma cells). The experiment in a line: Screening assay for Wnt activity: Sp5-Luc reporter gene assay in SW480 cells. The following applies: Homo sapiens, 42 h incubation, luminescence. It is filed as cell-based. In a few lines:
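IC50 values come from variable-slope four-parameter fits of luciferase signal normalized to DMSO wells. Stable Sp5-Luc reporter SW480 colon carcinoma cells were exposed to compounds in a 3-fold dilution series (source plates from 10 mM stock) for forty-two hours at 37 °C.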

The subject of experiment [2] is primary human fibroblasts derived from IPF patients (LL29 cells). As to the kind of experiment: Inhibition of fibrosis: TGF-β1-treated primary human fibroblasts from IPF patients (LL29), αSMA staining. It is filed as cell-based. The following applies: Fibroblast, 96 h, TGF-β1 20 ng/mL, 4 days, % αSMA-positive cells. The text has this: The above synthesized compounds were screened using primary human fibroblasts (derived from IPF patients) treated with TGF-β1 to determine their ability to inhibit the fibrotic process.
Primary human fibroblasts derived from IPF patients (LL29 cells) [^1Xiaoqiu Liu, et. al., “Fibrotic Lung Fibroblasts Show Blunted Inhibition by cAMP Due to Deficient cAMP Response Element-Binding Protein Phosphorylation”, Journal of Pharmacology and Experimental Therapeutics (2005), 315(2), 678-687; ^2Watts, K. L., et. al., “RhoA signaling modulates cyclin D1 expression in human lung fibroblasts; implications for idiopathic pulmonary fibrosis”, Respiratory Research (2006), 7(1), 88] were obtained from American Type Culture Collection (ATCC) and expanded in F12 medium supplemented with 15% Fetal Bovine Serum and Penicillin/Streptomycin.
Each compound was dissolved in DMSO as a 10 mM stock and used to prepare compound source plates. Serial dilution (1:2, 11-point dose-response curves from 10 μM to 1.87 nM) and compound transfer was performed using the ECHO 550 (Labcyte, Sunnyvale, Calif.) into 384-well clear bottom assay plates (Greiner Bio-One) with appropriate DMSO backfill for a final DMSO concentration of 0.1%. LL29 cells were plated at 1,500 cells/well in 80 μl/well F12 medium supplemented with 1% Fetal Bovine Serum. One hour after addition of the cells, TGF-β1 (Peprotech; 20 ng/mL) was added to the plates to induce fibrosis (ref 1 and 2 above). Wells treated with TGF-β1 and containing DMSO were used as controls. Cells were incubated at 37° C. and 5% CO2 for 4 days. Following incubation for 4 days, SYTOX green nucleic acid stain (Life Technologies [Thermo Fisher Scientific]) was added to the wells at a final concentration of 1 uM and incubated at room temperature for 30 min. Cells were then fixed using 4% formaldehyde (Electron Microscopy Sciences), washed 3 times with PBS followed by blocking and permeabilization using 3% Bovine Serum Albumin (BSA; Sigma) and 0.3% Triton X-100 (Sigma) in PBS. Cells were then stained with antibody specific to α-smooth muscle actin (αSMA; Abcam) (ref 1 and 2 above) in 3% Bovine Serum Albumin (BSA; Sigma) and 0.3% Triton X-100 (Sigma) in PBS, and incubated overnight at 4° C. Cells were then washed 3 times with PBS, followed by incubation with Alexa Flor-647 conjugated secondary antibody (Life Technologies [Thermo Fisher Scientific]) and DAPI at room temperature for 1 hour. Cells were then washed 3 times with PBS and plates were sealed for imaging. αSMA staining was imaged by excitation at 630 nm and emission at 665 nm and quantified using the Compartmental Analysis program on the CellInsight CX5 (Thermo Scientific). Dead or apoptotic cells were excluded from analysis based on positive SYTOX green staining. % of total cells positive for αSMA were counted in each well and normalized to the average of 11 wells treated with TGF-β1 on the same plate using Dotmatics' Studies Software. The normalized averages (fold change over untreated) of 3 replicate wells for each compound concentration were used to create dose-responses curves and EC50 values were calculated using non-linear regression curve fit in the Dotmatics' Studies Software. The EC50 values are reported.

In turn, `Cc1ccc(-c2nccc3[nH]c(-c4n[nH]c5ccc(-c6cncc(NC(=O)C(C)C)c6)cc45)nc23)s1` [Compound 347, N-(5-(3-(4-(5-Methylthiophen-2-yl)-1H-imidazo[4,5-c]pyridin-2-yl)-1H-indazol-5-yl)pyridin-3-yl)isobutyramide] registered an IC50 in experiment [1] of 7 nM. Also, in experiment [2], the EC50 amounted to 38 nM.

`O=C(Nc1cncc(-c2ccc3[nH]nc(-c4nc5c(-c6cccs6)nccc5[nH]4)c3c2)c1)C1CC1` [Compound 305, N-(5-(3-(4-(Thiophen-2-yl)-1H-imidazo[4,5-c]pyridin-2-yl)-1H-indazol-5-yl)pyridin-3-yl)cyclopropanecarboxamide] showed an IC50 in experiment [1] of 4 nM. The compound further had an EC50 in experiment [2] of 22 nM.

The compound `CC(C)(C)C(=O)Nc1cncc(-c2ccc3[nH]nc(-c4nc5c(-c6ccc(F)cc6)nccc5[nH]4)c3c2)c1` [Compound 34, N-(5-(3-(4-(4-fluorophenyl)-1H-imidazo[4,5-c]pyridin-2-yl)-1H-indazol-5-yl)pyridin-3-yl)pivalamide] showed an IC50 in experiment [1] of 13 nM. In experiment [2], this compound displayed an EC50 of 9 nM.

With `O=C(Cc1ccccc1)Nc1cncc(-c2ccc3[nH]nc(-c4nc5c(-c6ccsc6)nccc5[nH]4)c3c2)c1` [Compound 244, 2-Phenyl-N-(5-(3-(4-(thiophen-3-yl)-1H-imidazo[4,5-c]pyridin-2-yl)-1H-indazol-5-yl)pyridin-3-yl)acetamide], half-maximal inhibition in experiment [1] (IC50) required 69.1 nM. Besides, the EC50 in experiment [2] was 203 nM.

Regarding `Fc1ccc(-c2nccc3[nH]c(-c4n[nH]c5ccc(-c6cncnc6)cc45)nc23)cc1` [Compound 52, 4-(4-Fluorophenyl)-2-(5-(pyrimidin-5-yl)-1H-indazol-3-yl)-1H-imidazo[4,5-c]pyridine], it took 25 nM to reach half-maximal inhibition in experiment [1] (IC50). Further, the EC50 in experiment [2] was 539 nM.

In experiment [1], `CC(C)(C)C(=O)Nc1cncc(-c2ccc3[nH]nc(-c4nc5c(-c6ccc(F)s6)nccc5[nH]4)c3c2)c1` [Compound 320, N-(5-(3-(4-(5-Fluorothiophen-2-yl)-1H-imidazo[4,5-c]pyridin-2-yl)-1H-indazol-5-yl)pyridin-3-yl)pivalamide] showed an IC50 of 5.2 nM. This compound registered an EC50 in experiment [2] of 115 nM.

In experiment [1], `CCCC(=O)Nc1cncc(-c2ccc3[nH]nc(-c4nc5c(-c6ccccc6F)nccc5[nH]4)c3c2)c1` [Compound 69, N-(5-(3-(4-(2-Fluorophenyl)-1H-imidazo[4,5-c]pyridin-2-yl)-1H-indazol-5-yl)pyridin-3-yl)butyramide] returned an IC50 of 5 nM. The EC50 in experiment [2] came to 74 nM.

In experiment [1], `Fc1cccc(-c2nccc3[nH]c(-c4n[nH]c5ccc(-c6cn[nH]c6)cc45)nc23)c1` [Compound 1771, 2-(5-(1H-Pyrazol-4-yl)-1H-indazol-3-yl)-4-(3-fluorophenyl)-1H-imidazo[4,5-c]pyridine] gave an IC50 of 4 nM. This compound registered an EC50 in experiment [2] of 9990 nM.

With `O=C(Nc1cncc(-c2ccc3[nH]nc(-c4nc5c(-c6ccsc6)nccc5[nH]4)c3c2)c1)c1ccccc1` [Compound 245, N-(5-(3-(4-(Thiophen-3-yl)-1H-imidazo[4,5-c]pyridin-2-yl)-1H-indazol-5-yl)pyridin-3-yl)benzamide], it took 40 nM to reach half-maximal inhibition in experiment [1] (IC50). Also, in experiment [2], a half-maximal effect (EC50) was put at 17 nM.

`O=C(Nc1cncc(-c2ccc3[nH]nc(-c4nc5c(N6CCCCC6)nccc5[nH]4)c3c2)c1)C1CC1` [Compound 175, N-(5-(3-(4-(Piperidin-1-yl)-1H-imidazo[4,5-c]pyridin-2-yl)-1H-indazol-5-yl)pyridin-3-yl)cyclopropanecarboxamide] yielded an IC50 in experiment [1] of 278 nM. The compound further returned an EC50 in experiment [2] of 115 nM.

Compound `CN1CCN(c2nccc3[nH]c(-c4n[nH]c5ccc(-c6cncnc6)cc45)nc23)CC1` [Compound 234, 4-(4-Methylpiperazin-1-yl)-2-(5-(pyrimidin-5-yl)-1H-indazol-3-yl)-1H-imidazo[4,5-c]pyridine] gave an IC50 in experiment [1] of 21 nM. Further, the midpoint of the response in experiment [2], the EC50, lay at 280 nM.
